Literature values, collected in PMC12704579, “New Anticancer 4‐Aryldihydropyrimidinone‐5‐Carboxylates Targeting Hsp90” (Chemical Biology & Drug Design, 2025).

Legend:
HCC1954 cells = test system: HCC1954 cells; parameters: method as in Bordoni [2016]; conditions: invasive breast cancer cell line HCC1954; ref Bordoni [2016]; cited from earlier work
Bcl3-p50 = test system: Bcl3-p50; parameters: method as in Soukupová [2013]; conditions: ref Soukupová [2013]; cited from earlier work

## CCOc1cc(C2NC(=O)NC(C)=C2C(=O)OCc2ccc3c(c2)OCO3)ccc1O (centres unmarked) [Compound 1]
HCC1954 cells
  Inhibitory activity in colony forming assay, HCC1954: potent inhibitory activity
Bcl3-p50
  Activity within the Bcl3-binding assays: not active
